Laboratory results from patent US20260355184A1, “SMALL MOLECULE DEGRADERS OF HIV-1 TAT PROTEIN” (priority 2022, published 2026).

Key:
recombinant Tat = molecular target: T1, recombinant Tat (Human immunodeficiency virus type 1 (HXB3 ISOLATE), UniProt P69698); test: Recombinant Tat stability in HEK293T cells, western blot; format: cell-based, HIV; settings: 4 hrs recombinant Tat then 2 hrs compound, n=1
T1 construct: detected with anti-Tat serum
Procedure: Next, the effect of the three leads on the alteration of Tat steady state levels was assessed. Tat expression from an integrated provirus, or from HIV acute infection is generally too low to be detected by western blot. Furthermore, antibodies against Tat are known for their lack of avidity. Tat degradation was thus assessed upon transfection. Flag-Tat or Flag-GFP were individually transfected into HEK293T and 24 hrs later, TT-44856, TT-44863 or TT-44881 were added to the culture, followed by Western blot 24 hrs later (dubbed “degradation assay”) (FIG. 5A). […] Finally, the leads' impact on recombinant Tat protein in HEK293T cells was assessed (FIG. 5D). HEK293T cells were incubated with recombinant Tat for 4 hrs to allow Tat internalization, followed by several thorough washes to remove unincorporated Tat. Cells were then incubated with all three leads (or Triptolide) for an additional 2 hrs. Cells were lysed and analyzed by western blot with an anti-Tat serum.

[1] = test system: TAR (Flag-Tat-Rev fusion protein); test: Flag-Tat-Rev fusion protein transactivation via TAR; format: cell-based, HIV-1; settings: TAR reporter
[2] = test system: TAR-SIIB promoter (Flag-Tat-Rev fusion protein); test: Flag-Tat-Rev fusion protein transactivation of TAR-SIIB promoter; format: cell-based, HIV-1; settings: SIIB reporter HEK293T
Procedure: FIG. 4. […] Shown is n=1. […] Shown is n=1. ARVs: antiretrovirals: 100 nM Efavirenz, 200 nM Lamivudine and 200 nM Raltegravir. C. […] SIIB: a reporter HEK293T stable cell line where the essential apical region of TAR was replaced by the 29-nucleotide stem-loop IIB (SIIB) subdomain of the HIV-1 RRE. A Tat-Rev fusion protein activates transcription of luciferase when Rev binds SIIB, bringing Tat and P-TEFb to RNAPII at the HIV promoter. Shown is mean±SEM of n=4.

OM10.1 cells = test: Cell-associated HIV Gag mRNA expression / HIV transcription in latently infected OM10.1 cells; format: cell-based; settings: 12-day treatment with ARVs
Procedure: (§1) Next, the activity of these leads against HIV infection was evaluated using the reporter cell line HeLa-CD4-LTR-LacZ, which stably expresses the β-galactosidase (β-Gal) gene under the control of the HIV 5′ LTR. The HIV NL4.3 strain was used for these studies and β-Gal activity was measured 72 hrs post infection (FIG. 3A). Cytotoxicity assays using Cell-Titer-Glo were performed in parallel to assess cell viability (FIG. 3A). […] Their anti-HIV activity was further assessed in acute replication of Jurkat T cells with the NL4.3 strain (FIG. 3A). […] These OM10.1 cells contain a single integrated wild-type provirus, while ACH-2 cells contain a single integrated provirus with a TAR mutation C37T, defective Tat-TAR feedback loop (FIG. 3B).

ACH-2 cells = test: Cell-associated HIV Gag mRNA expression / HIV transcription in latently infected ACH-2 cells; format: cell-based; settings: ACH-2; 12-day treatment with ARVs
Procedure: as §1

Flag-Tat = molecular target: T2, Flag-Tat (Human immunodeficiency virus type 1 (HXB3 ISOLATE), UniProt P69698); test: Degradation assay: Flag-Tat in HEK293T cells, western blot; format: cell-based, HIV
T2 construct: Tat 86 aa likely (9 lysines)
Procedure: Next, the effect of the three leads on the alteration of Tat steady state levels was assessed. Tat expression from an integrated provirus, or from HIV acute infection is generally too low to be detected by western blot. Furthermore, antibodies against Tat are known for their lack of avidity. Tat degradation was thus assessed upon transfection. Flag-Tat or Flag-GFP were individually transfected into HEK293T and 24 hrs later, TT-44856, TT-44863 or TT-44881 were added to the culture, followed by Western blot 24 hrs later (dubbed “degradation assay”) (FIG. 5A). […] These cells were treated with TNFα (previously determined not be degraded by the three leads in FIG. 2D) in the presence of TT-44856, TT-44863 or TT-44881, followed by western blot with an anti-Flag antibody 17 hrs later. […] Finally, the leads' impact on recombinant Tat protein in HEK293T cells was assessed (FIG. 5D). HEK293T cells were incubated with recombinant Tat for 4 hrs to allow Tat internalization, followed by several thorough washes to remove unincorporated Tat. Cells were then incubated with all three leads (or Triptolide) for an additional 2 hrs. Cells were lysed and analyzed by western blot with an anti-Tat serum.
Degradation of Tat has been reported in the literature in multiple ways, including the lysosomal pathway^23, the ubiquitin-independent 20S proteasomal pathway (due to its unfolded structure)^24,25, and the ubiquitin-dependent 26S proteasomal pathway^26. It was first assessed whether Tat was targeted to the lysosomal pathway by the lead compounds. HEK293T cells were transfected with Flag-Tat for 24 hrs, incubated with the compounds for an additional 24 hrs, then treated for 8 hrs with either 100 μM chloroquine or 50 mM NH4Cl, both known to inhibit lysosomal hydrolases by reducing acidification. […] Both the 20S and the 26S proteasomal pathways were next investigated using MG132, an inhibitor of the catalytic […] of 20S present in both pathways^27. The degradation assay was carried out as above, but compounds were simultaneously incubated with MG132 20 μM or DMSO for 17 hrs followed by western blot. In the presence of MG132, Tat degradation was rescued, but the rescue was higher in the presence of the lead compounds (FIG. 6B).
Protein ubiquitination occurs by sequential recruitment of ubiquitin-activating enzyme E1, ubiquitin-conjugating enzyme E2, and ubiquitin ligase E3 (using ubiquitin, substrate protein, and ATP). The selectivity in protein ubiquitination is conferred by E3 ubiquitin ligases that recognize the substrate proteins^29 and the human genome contains more than 600 E3 ubiquitin ligases^29. To determine whether the small molecule leads trigger the 20S or the 26S proteasomal pathways, the Tat degradation assay was performed in the presence of commercially available E3 ligase inhibitors, including Lenalidomide a E3 ubiquitin ligase Cereblon inhibitor. Cereblon has not been previously reported to ubiquitinate Tat. The degradation assays were performed as above with Lenalidomide (40 μM) or DMSO incubation for 4 hrs in the presence of the lead molecules (FIG. 7A). […] To confirm the engagement of Cereblon in the mechanism of action of the lead compounds, shRNAs were used to stably knock down Cerebelon, or CD8 control, in HEK293T cells, and the degradation assay for TT-44856 was performed.
The involvement of the ubiquitous VHL E3 ligase in the activity of TT-44881 inducing Tat degradation was also investigated. HEK293T cells overexpressing Tat protein and VHL siRNAs (or si control) were treated with either TT-44881 (60 μM) and DMSO or TT-44881 with a VHL PROTAC (CM11, 500 nM) for 24 hours. siRNAs and PROTACs were used together to maximize the depletion of both VHL isoforms (30 and 19 kDa).

HIV = settings: combined with ART; CD4+ T cells from infected individuals and humanized mouse model; cited from earlier work

T2 sequence (P69698 whole entry): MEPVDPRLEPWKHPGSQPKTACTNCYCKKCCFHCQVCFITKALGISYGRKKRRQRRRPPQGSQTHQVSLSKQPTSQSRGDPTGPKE
T1 sequence (P69698 whole entry): as above

In the case of `CC(C)[C@]12O[C@H]1[C@@H]1O[C@]13[C@]1(O[C@H]1C[C@H]1C4=C(CC[C@@]13C)C(=O)OC4)[C@@H]2O` [Triptolide, reference compound], the “recombinant Tat degradation” value (recombinant Tat) is reported as “degraded Tat as opposed to the DMSO control”, the “Flag-Tat-Rev / TAR” value [1] is reported as “inhibition of both TAR and TAR-SIIB” and the “Flag-Tat-Rev transactivation of TAR-SIIB” value [2] is reported as “inhibition of both TAR and TAR-SIIB”. For the same compound, the “Gag mRNA / HIV transcription (in words)” value (OM10.1 cells) was “reduced Gag mRNA in both cell lines”, the “Gag mRNA / HIV transcription (in words)” value (ACH-2 cells) was “reduced Gag mRNA in both cell lines” and the “Flag-Tat degradation / steady state” value (Flag-Tat; HEK293T, western blot) was “nonspecifically degraded Flag-Tat”. For the same compound, the “effect of Lenalidomide on compound induced Flag-Tat degradation” value (Flag-Tat; Lenalidomide 40 μM, 4 hrs) was “did not engage the 26S proteasomal pathway, but only the 20S proteasomal pathway”.
In the case of `CN(C)[C@H]1C[C@@]23CC[C@@]4(O2)C(=CC[C@]2(C)C(c5ccc6ccncc6c5)=CC[C@H]24)C=C3[C@@H](O)[C@@H]1O` [dCA, didehydro-Cortistatin A, reference compound], the “Flag-Tat-Rev / TAR” value [1] is listed as “interfered with the Flag-Tat-Rev to TAR binding”, the “Gag mRNA / HIV transcription (in words)” value (OM10.1 cells) is listed as “only inhibited transcription in OM10.1 cells” and the “transcription and viral rebound with ART” value (HIV) is listed as “inhibits transcription and blocks viral rebound upon treatment interruption”.
